Data from patent publication US20020055528A1, “Artemisinin analogs having antimalarial, antiproliferative, and antitumor activities and chemoselective methods of making the same” (priority 1999, published 2002).
“Also recorded” adds a separate entry of the source.

Columns and labels:
Assay type in all cases: cell-based
[1] = tested on: K-562; test: NCI 60 cell line screen (SRB), Leukemia
[2] = tested on: MDA-MB231/ATCC; test: NCI 60 cell line screen (SRB), Breast Cancer; conditions: MDA- (first line of MDA-MB231/ATCC)
[3] = tested on: SK-OV-3; test: NCI 60 cell line screen (SRB), Ovarian Cancer
[4] = tested on: HCC-2998; test: NCI 60 cell line screen (SRB), Colon Cancer
[5] = tested on: HCT-116; test: NCI 60 cell line screen (SRB), Colon Cancer
[6] = tested on: OVCAR-5; test: NCI 60 cell line screen (SRB), Ovarian Cancer
[7] = tested on: HL-60(TB); test: NCI 60 cell line screen (SRB), Leukemia
[8] = tested on: NCI-H522; test: NCI 60 cell line screen (SRB), Non-Small Cell Lung Cancer
[9] = tested on: UACC-257; test: NCI 60 cell line screen (SRB), Melanoma
[10] = tested on: NCI-H322M; test: NCI 60 cell line screen (SRB), Non-Small Cell Lung Cancer
[11] = tested on: LOX IMVI; test: NCI 60 cell line screen (SRB), Melanoma
[12] = tested on: 60 cell line panel; test: NCI 60 cell line screen (SRB), whole panel
Method: The screening assay is performed on 96-well microtitre plates. Relatively high initial inoculation densities are used, in order to permit measurement of “time-zero” values and to enhance the screen's ability to detect and provide some differentiation between antiproliferative and cytotoxic response parameters. […] The inoculated microtitre plates are pre-incubated for 24 hours at 37θC prior to drug additions. The five drug dilutions tested routinely range from 10^−4 to 10^−8 molar. Higher or lower concentration ranges may be selected on a nonroutine basis if appropriate solubility and/or prior biological information or other screening data so dictate. Duplicate wells are prepared for all concentrations, (concentration is often denoted by placing brackets around a number); “time-zero” and “no drug” controls are also provided for each test. The minimum amount of compound required for a one-time evaluation in the routine screen can be calculated from the knowledge that each test requires a total of approximately 40 ml (0.04 liter) of cell culture medium containing the highest desired drug concentration. Thus, the amount (grams) of sample required (assuming an upper test concentration limit of 10^−4 M) is: molecular weight of compound×[…]. After a 48 hour incubation (37θC) with the test compound, the cells are fixed in situ to the bottoms of the microtitre wells by addition of 50 ul of either 50% trichloroacetic acid (for adherent cell lines) or 80% trichloroacetic acid (for settled cell suspension lines), followed by incubation for 60 minutes at 4θC. The cellular protein in each well is assayed using a sulforhodamine B (SRB) stain procedure. Briefly, after discarding the supernatants, the microtitre plates are washed 5 times with deionized water and air-dried. One hundred microliters of SRB solution (0.4% w/v in 1% acetic acid) is added to each microtitre well and incubated for 10 minutes at room temperature. Unbound SRB is removed by washing 5 times with 1 % acetic acid. The plates are air-dried, the bound stain is solubilized with Tris buffer, and the optical densities read at 515 nm. SRB is a bright pink anionic dye which, in dilute acetic acid, binds electrostatically to the basic amino acids of TCA-fixed cells. Cryopreserved master stocks of all the lines are maintained, and cultures used for screening are replaced from the master stock after no more than twenty passages in the screening laboratory. The cell line panel consists of 60 lines, organized into nine, disease-related subpanels including leukemia, non-small-cell lung cancer, colon, CNS, melanoma, ovarian, renal, prostate and breast cancers.
The response parameters G150 and LC50 are interpolated values representing the concentrations at which the percentage growth (PG) is +50 and −50, respectively:
GI50 is the concentration for which the PG=+50. At this value the increase from time tzero, in the number or mass of cells in the test well is only 50% as much as the corresponding increase in the control well during this period of the experiment, see Table II. A drug effect of this intensity is interpreted as primary growth inhibition.
TGI is the concentration for which PG=0. At this value the number or mass of cells in the well at the end of the experiment equals the number or mass of cells in the well at time tzero, see Table III. A drug effect of this intensity is regarded as cytostasis.
LC50 is the concentration for which the PG=−50. At this value, the number or mass of cells in the test well at the end of the experiment is half that at time tzero, see Table IV. This is interpreted as cytotoxicity.

[13] = tested on: SK-MEL2; test: NCI 60 cell line screen (SRB), Melanoma
[14] = tested on: IGROVI; test: NCI 60 cell line screen (SRB), Ovarian Cancer
[15] = tested on: COLO 205; test: NCI 60 cell line screen (SRB), Colon Cancer; conditions: PG=+50
[16] = tested on: SF-268; test: NCI 60 cell line screen (SRB), CNS Cancer
[17] = tested on: SNB-75; test: NCI 60 cell line screen (SRB), CNS Cancer
[18] = tested on: SF-295; test: NCI 60 cell line screen (SRB), CNS Cancer

With `CC1=C(C=Cc2cccc(C=CC3=C(C)C4CCC(C)C5CCC6(C)OOC45C(O3)O6)c2)OC2OC3(C)CCC4C(C)CCC1C24OO3` (centres unmarked) [VII-h] the Log10TGI ([1]; PG=0) was −7.70 log10M, the Log10GI50 ([1]; PG=+50) was −7.70 log10M and the Log10GI50 ([1]; Table IV (LC50, PG=−50)) was greater than −4.00 log10M. The Log10TGI ([2]; PG=0) was −5.35 log10M, the “Log10 GI50 or LC50 (per conditions)” value ([2]; PG=+50) was −6.49 log10M and the “Log10 GI50 or LC50 (per conditions)” value ([2]; Table IV (LC50, PG=−50)) was greater than −4.00 log10M. The Log10TGI ([3]; PG=0) was greater than −4.00 log10M, the Log10GI50 ([3]; Table IV (LC50, PG=−50)) was greater than −4.00 log10M and the Log10TGI ([4]; PG=0) was greater than −4.00 log10M. The Log10GI50 ([4]; PG=+50) was −6.57 log10M, the Log10TGI ([5]; PG=0) was −5.38 log10M and the “Log10 GI50 (PG=+50) or Log10 LC50 (PG=−50), as given per row condition” value ([5]; PG=+50) was −7.53 log10M. The “Log10 GI50 (PG=+50) or Log10 LC50 (PG=−50), as given per row condition” value ([5]; Table IV (LC50, PG=−50)) was greater than −4.00 log10M, the Log10TGI ([6]; PG=0) was greater than −4.00 log10M and the Log10GI50 ([6]; PG=+50) was −7.12 log10M. The Log10GI50 ([6]; Table IV (LC50, PG=−50)) was greater than −4.00 log10M, the Log10TGI ([7]; PG=0) was −7.59 log10M and the Log10GI50 ([7]; PG=+50) was −7.59 log10M. For the same molecule, the Log10GI50 ([7]; Table IV (LC50, PG=−50)) was greater than −4.00 log10M, the Log10TGI ([8]; PG=0) was greater than −4.00 log10M and the Log10GI50 ([8]; PG=+50) was −7.22 log10M. The Log10GI50 ([8]; Table IV (LC50, PG=−50)) was greater than −4.00 log10M, the Log10TGI ([9]; PG=0) was greater than −4.00 log10M and the “Log10 GI50 (PG=+50) or Log10 LC50 (PG=−50)” value ([9]; PG=+50) was −7.21 log10M. The “Log10 GI50 (PG=+50) or Log10 LC50 (PG=−50)” value ([9]; Table IV (LC50, PG=−50)) was greater than −4.00 log10M, the Log10TGI ([10]; PG=0) was −5.88 log10M and the Log10GI50 ([10]; PG=+50) was −7.56 log10M. It also gave a Log10TGI ([11]; PG=0) of −5.67 log10M, a Log10GI50 ([11]; PG=+50) of −7.40 log10M and a Log10GI50 ([11]; Table IV (LC50, PG=−50)) of −4.15 log10M. For the same molecule, the “MG MID of Log10GI50 (Table IV)” value ([12]; Table IV (LC50), mean over the panel) was −4.01 log10M, the “Delta of Log10GI50 (Table IV)” value ([12]; Table IV (LC50), panel summary) was 0.43 and the “Range of Log10GI50 (Table IV)” value ([12]; Table IV (LC50), panel summary) was “.44”. The “potency in words, compared with artemisinin and paclitaxel” value ([12]; Tables II, III and IV) was “in most instances are as potent and in some instances more potent than paclitaxel; also recorded: more potent than artemisinin and equivalent to and in many instances higher in potency than paclitaxel”, the “MG MID of Log10GI50” value ([12]; mean over the panel) was −7.03 log10M and the “MG MID of Log10TGI” value ([12]; mean over the panel) was −4.61 log10M. The “Delta of Log10GI50” value ([12]; panel summary) was 0.97, the “Delta of Log10TGI” value ([12]; panel summary) was 2.62 and the “Range of Log10GI50” value ([12]; panel summary) was 4.00. For the same molecule, the “Range of Log10TGI” value ([12]; panel summary) was 3.23, the Log10TGI ([13]; PG=0) was −5.34 log10M and the “Log10 GI50 or LC50 (per conditions)” value ([13]; PG=+50) was −6.87 log10M. The “Log10 GI50 or LC50 (per conditions)” value ([13]; Table IV (LC50, PG=−50)) was greater than −4.00 log10M, the Log10TGI ([14]; PG=0) was −4.20 log10M and the Log10GI50 ([14]; Table IV (LC50, PG=−50)) was greater than −4.00 log10M. It also gave a Log10GI50 [15] of −7.88 log10M, a Log10TGI ([16]; PG=0) greater than −4.00 log10M and a Log10GI50 ([16]; PG=+50) of −6.86 log10M. For the same molecule, the Log10TGI ([17]; PG=0) was −5.08 log10M, the “Log10 GI50 (PG=+50) or LC50 (PG=−50)” value ([17]; PG=+50) was −6.99 log10M and the “Log10 GI50 (PG=+50) or LC50 (PG=−50)” value ([17]; Table IV (LC50, PG=−50)) was greater than −4.00 log10M. For the same molecule, the Log10TGI ([18]; PG=0) was greater than −4.00 log10M and the Log10GI50 ([18]; PG=+50) was −6.39 log10M.
